Allergen reduction rate data for three substances are collected here from patent publication US8987526B2, “Partially halogenated, hydroxylated fullerene and allergen adsorbent using the same” (Osaka University, priority 2010, dated 2015).

The experiment deals with T1, cedar pollen allergen (Cry j1) (Cryptomeria japonica, UniProt P18632).
T1 sequence (P18632 22-374): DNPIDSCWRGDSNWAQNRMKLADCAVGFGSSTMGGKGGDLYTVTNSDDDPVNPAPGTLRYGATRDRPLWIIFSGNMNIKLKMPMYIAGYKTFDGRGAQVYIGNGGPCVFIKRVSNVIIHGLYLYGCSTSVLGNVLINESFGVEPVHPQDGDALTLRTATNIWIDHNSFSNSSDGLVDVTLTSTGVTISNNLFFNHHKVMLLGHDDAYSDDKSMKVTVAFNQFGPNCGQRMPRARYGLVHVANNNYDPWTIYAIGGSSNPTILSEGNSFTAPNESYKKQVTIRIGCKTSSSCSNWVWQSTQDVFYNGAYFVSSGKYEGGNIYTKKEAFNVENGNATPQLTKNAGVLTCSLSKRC
The experiment can be described thus: Function test of the sample to cedar pollen allergen (Cry j1): allergen adsorption, supernatant measured by sandwich ELISA. It counts as binding. On the procedure:
A 1% (by weight/volume) sample solution was prepared from each of the compounds synthesized in Examples 1 to 5, an allergen (Cry j1) dissolved into a phosphate buffer solution was added into the sample solution so as to give 100 ng/mL of the concentration thereof, and then, they were mixed by using a vortex; thereafter, reaction was carried out with shaking the mixture at 4° C. The solution was recovered at the respective predetermined intervals ([…]); and a supernatant thereof after centrifugal separation was analyzed as to the allergen concentration (A) by using a sandwich ELISA method (Enzyme-Linked Immunosorbent Assay). […] Reduction rate (%)=(B−A)/B×100
Specific procedure of the sandwich ELISA method will now be described. Anti-Cry j1 antibody is immobilized in each well of a microplate; and after cleaning it, post coating thereof is conducted. After further cleaning, a sample solution or a standard allergen solution is added thereinto to carry out a primary reaction. After cleaning thereof, an anti-Cry j1 biotin-labeled antibody is added thereinto to carry out a secondary reaction. After further cleaning thereof, an enzyme reagent streptavidin HRP is added thereinto; and after cleaning thereof, an o-phenylenedimaine substrate is added thereinto to carry out a chromogenic reaction. After termination of the reaction by adding dilute sulfuric acid, absorbance at the wavelength of 490 nm is measured by using a microplate reader. From a calibration curve predetermined by using the standard allergen solution, allergen concentration in each sample solution is obtained.

The mark [1] stands for this setting: 1% (w/v) sample solution, 100 ng/mL Cry j1, 4° C., at 5 minutes.

In the case of C60Cl15(OH)15.9H2O [Example 3], the allergen reduction rate under setting [1] came out at 90%.

Take C60Cl5 (OH)15.5H2O [Example 4]: the allergen reduction rate under setting [1] came out at 90%.

C60(OH)44.8H2O [reference compound] came in with an allergen reduction rate (conditions similar to Test Example 1, after 60 minutes) of 6.2%.
